Laboratory results from publication PMC10253860, “Kinetic Profile of Urine Metabolites after Acute Intake of a Phenolic Compounds-Rich Juice of Juçara (Euterpe edulis Mart.) and Antioxidant Capacity in Serum and Erythrocytes: A Human Study” (International Journal of Molecular Sciences, 2023).

Assays:
[1] = parameters: method as in PMID 12488939, PMID 34430750; conditions: toluene-free healthy volunteers; cited from earlier work
[2] = Urinary excretion of phenolic metabolites after single 400 mL juçara juice intake (HPLC-DAD, LC-ESI-MS/MS); type: in vivo, human; conditions: for AUC / Cmax: urine, mean ± SEM, n = 9–10; for AUC: 0–6 h after 400 mL juçara juice; for Cmax: 10 healthy subjects, after 400 mL juçara juice
From the text: Study volunteers were selected according to the following inclusion criteria: no clinical conditions such as cardiovascular, endocrine, gastrointestinal, renal, or hepatic diseases; no visible or known infections or inflammatory processes within three months of the study; no use of medicines or dietary supplements, no smoking, no regular alcohol drinking. The other criteria were BMI < 30 kg/m^2 and no gastric intolerance or complications related to the juçara juice intake. […] The subjects were advised to avoid vegetable and fruit sources of anthocyanins or their derivatives, such as açai, blackberries, blueberries, cherries, red and purple grapes, strawberries, and green and black tea, two days before the study. […] The subjects were also instructed not to practice intense physical activity and not to deprive themselves of sleeping before the outset of the study protocol. […] Subsequently, the participants drank 400 mL of the juçara juice within 5 min. Blood (30, 60, 120, and 360 min) and urine (0–3, 3–6 h) were collected again. The volunteers continued fasting during the 6 h of the sample collection time. The study protocol was based on evidence that anthocyanins appear to be rapidly absorbed and then eliminated within 4 h. […] Blood oxidative stress biomarkers were assessed, and urine metabolites of phenolic compounds were measured.
Phenolic compounds were extracted in urine using Waters OASIS HLB μElution plates (Milford, MA, USA), which were preconditioned with 250 μL methanol and 250 μL 0.2% acetic acid. After urine collection, the samples were immediately acidified with trifluoracetic acid. Aliquots of the samples were applied to the μ Columns of the plates and the phenolic compounds were eluted with methanol acidified with 0.2% acetic acid. The eluate was dried using CentriVap Benchtop Vacuum Concentrators (Labconco, Kansas City, MO, USA), reconstituted with methanol acidified with 5% acetic acid, and filtered with a […] PTEF filter (Millipore, Bedford, MA, USA).
The mobile phase consisted of two solvents: (A) 0.5% formic acid in water and (B) 0.5% formic acid in acetonitrile. The gradient used was 10% (B) at the beginning, 10% at 5 min, 20% at 15 min, 25% at 25 min, 35% at 33 min, 50% at 38 min, 90% at 43–44 min and 10% at 45 min. […] Quantification was based on the calibration curves of the PCA, VA, iVA, HA, HBA, and HPA standards. The concentrations were expressed as μmol/mmol creatinine for urine samples, and the elimination values were expressed in μmol. Urinary creatinine was evaluated using a Labtest kit (Labtest Diagnóstica S.A., Lagoa Santa, Minas Gerais, Brazil). The area under the curve (AUC) was calculated using the trapezoidal rule (data expressed as μmol/h), and the maximum concentration (Cmax) was calculated using the Origin 6.0 software (OriginLab Corporation, Northampton, MA, USA) and expressed as the mean and standard error of the mean (SEM). The samples collected from 0 to 3 h (after the juçara juice intake) were indicated as 3 h urine and the samples collected from 3 to 6 h were designated as 6 h urine to indicate the period of excretion. The standards’ purity varied from 95 to 98%.
Phenolic compounds’ metabolites were identified using a Prominence Liquid Chromatograph (Shimadzu, Japan) coupled to an ion trap Esquires-LC mass spectrometer (Bruker Daltonics, Billerica, MA, USA) with an electrospray ionization (ESI) interface. The chromatography condition was the same as that used for metabolite quantification by HPLC-DAD. After passing through the DAD detector, the flow rate was changed to 0.2 mL/min to inject the samples into the mass spectrometer. ESI was left in the positive mode for anthocyanins and in the negative mode for the other compounds. […] Scanning m/z was 100–1500.

average urine concentration at baseline ([2]; baseline samples, before the juice intake) | Structure (SMILES) | normal urine value [1] | AUC [2] | Cmax [2]
around 243.06 µmol/mmol creatinine | O=C(O)CNC(=O)c1ccccc1 [Hippuric acid] | 126.36–245.13 µmol/mmol creatinine | 6483.34 ± 1159.82 µmol/h | 605.80 ± 75.74 µmol/mmol Creatinine
 | O=C(O)Cc1ccc(O)cc1 [Hydroxyphenylacetic acid] |  | 3527.78 ± 657.52 µmol/h | 334.09 ± 46.79 µmol/mmol Creatinine
 | O=C(O)[C@H]1O[C@@H](Oc2c(-c3ccc(O)cc3)oc3cc(O)cc(O)c3c2=O)[C@H](O)[C@@H](O)[C@@H]1O [Kaempferol glucuronide] |  | 138.05 ± 20.58 µmol/h | 13.62 ± 1.89 µmol/mmol Creatinine
 | O=C(O)c1ccc(O)c(O)c1.O=C(O)c1ccc(O)c(O)c1 [Protocatechuic acid, 3,4-Dihydroxybenzoic acid (protocatechuic acid)] |  | 282.89 ± 49.31 µmol/h | 28.26 ± 3.62 µmol/mmol Creatinine
 | COc1cc(C(=O)O)ccc1O[C@@H]1O[C@H](C(=O)O)[C@@H](O)[C@H](O)[C@H]1O [Vanillic acid glucuronide] |  | 164.38 ± 14.98 µmol/h | 16.74 ± 1.33 µmol/mmol Creatinine
 | COc1cc(C(=O)O)ccc1O [Vanillic acid] |  | 191.42 ± 25.98 µmol/h | 20.13 ± 2.27 µmol/mmol Creatinine
